# Entries after “also recorded” stand apart in the source; their conditions may differ.
# Legend:
# [1] = system: Hh target gene Ptch1 expression in NIH3T3-E1 cells; assay: Inhibition of CAPAN-1 conditioned medium-induced Ptch1 mRNA expression, Q-RT-PCR; format: cell-based, mouse; conditions: CAPAN-1 CM, 72 h
# Excerpt: NIH3T3-E1 fibroblasts were obtained from ATCC (Manassas, VA) and cultured, as previously described. CAPAN-1 and PANC-1 human pancreatic cancer cells were obtained from ATCC and cultured in Dulbecco’s Modified Eagle Medium (DMEM) containing 10% heat-inactivated fetal bovine serum (FBS) (Hyclone Laboratories, Logan, UT, USA) and antibiotics, as previously described. The human lung cancer cell lines A549 and H2030 were obtained from ATCC and cultured in RPMI-1640 containing 10% FBS. The human hepatoma cell line HepG2 was obtained from ATCC and cultured in DMEM containing 10% FBS. […]
# Total RNA was extracted with the RNeasy Plus Mini Kit from Qiagen, according to the manufacturer’s instructions. […] The cDNAs were then mixed with Qi SYBR Green Supermix (Bio-Rad, Hercules, CA, USA) for quantitative RT-PCR assay using a Bio-Rad I-cycler IQ quantitative thermocycler. […] Fold changes in gene expression were calculated using the ΔΔCt method. […]
# (§1) Figure 3 Inhibition of ligand-induced Hedgehog signaling. […] After 72 h, RNA was extracted and analyzed by Q-RT-PCR for the expression of Hh target genes Gli1 (a,b,d) and Ptch1 (c), and normalized to Oaz1 expression. […] Luciferase activity was measured and normalized to the Renilla luciferase activity. […]
# [2] = system: 8XGliBS-luciferase reporter responsive to Gli1 in NIH3T3-E1 cells; assay: CM-induced 8XGliBS-luciferase reporter assay; format: cell-based, mouse; conditions: 72 h treatment
# Procedure: NIH3T3-E1 and Sufu^−/− cells cultured in 24-well plates at 90% confluence were transiently transfected with 0.1 µg of Gli response-element reporter (pGL3b-8xGli-Luciferase) plasmid, and 10 ng of pTK-Renilla-Luciferase plasmid with or without co-transfection with 10 ng of Gli1 overexpression vector, pSRα-Gli1, as previously described using Lipofectamine LTX Plus transfection reagent (Invitrogen). Twenty-four h after transfection, cells were treated with test agents for 72 h. Then the firefly and Renilla luciferase activities were measured using a dual luciferase kit (Promega, Madison, WI, USA) and a GloMax-96 Microplate Luminometer. The firefly luciferase activities were normalized to the Renilla luciferase activities. Data are reported as the mean of triplicate determinations ± SD.
# Figure 3 Inhibition of ligand-induced Hedgehog signaling. NIH3T3 cells were pretreated for 2 h with the oxysterols or various inhibitors, as indicated, in DMEM containing 5% FBS. Next, cells were treated with CAPAN-1 conditioned medium (CM) in the absence or presence of oxysterols or inhibitors. After 72 h, RNA was extracted and analyzed by Q-RT-PCR for the expression of Hh target genes Gli1 (a,b,d) and Ptch1 (c), and normalized to Oaz1 expression. […] Luciferase activity was measured and normalized to the Renilla luciferase activity. […]
# [3] = system: Gli1 expression in A549 cells; assay: Inhibition of Gli1 expression in A549 cells, Q-RT-PCR; format: cell-based, human; conditions: 10 µM, 72 h
# Excerpt: (§2) NIH3T3-E1 fibroblasts were obtained from ATCC (Manassas, VA) and cultured, as previously described. CAPAN-1 and PANC-1 human pancreatic cancer cells were obtained from ATCC and cultured in Dulbecco’s Modified Eagle Medium (DMEM) containing 10% heat-inactivated fetal bovine serum (FBS) (Hyclone Laboratories, Logan, UT, USA) and antibiotics, as previously described. The human lung cancer cell lines A549 and H2030 were obtained from ATCC and cultured in RPMI-1640 containing 10% FBS. The human hepatoma cell line HepG2 was obtained from ATCC and cultured in DMEM containing 10% FBS. Mouse embryonic fibroblasts (MEFs) from suppressor of fused (Sufu) null mice (Sufu^−/−) were provided by Dr. Philip Beachy of Stanford University and cultured in DMEM containing 10% FBS. Gant61, SB431542 and vismodegib (GDC0449) were obtained from Cayman Chemical, HPI-1 was obtained from Abcam. For experiments, cells were treated in a medium containing 5% FBS.
# (§3) Total RNA was extracted with the RNeasy Plus Mini Kit from Qiagen, according to the manufacturer’s instructions. One microgram of RNA was reverse-transcribed using an iScript Reverse Transcription Supermix from Bio-Rad, to make single-stranded cDNA. The cDNAs were then mixed with Qi SYBR Green Supermix (Bio-Rad, Hercules, CA, USA) for quantitative RT-PCR assay using a Bio-Rad I-cycler IQ quantitative thermocycler. All PCR samples were prepared in triplicate wells in a 96-well plate. […] Fold changes in gene expression were calculated using the ΔΔCt method. […]
# (§4) Figure 4 Inhibition of Gli and Shh expression in (a) PDAC (PANC-1) and (b,c) human lung cancer cells (A549 and H2030, respectively) by Oxy186. Cells were treated with the compounds as indicated in DMEM or RPMI 1640 containing 5% FBS for (a) 48 or (b,c) 72 hours, then RNA was extracted and analyzed by Q-RT-PCR for the expression of Gli1 and normalized to GAPDH expression. (d) CAPAN-1 cells were treated with the compounds, as indicated, in DMEM containing 5% FBS for 72 h, then RNA was extracted and analyzed by Q-RT-PCR for the expression of Shh and normalized to GAPDH expression. […]
# [4] = system: Shh expression in CAPAN-1 cells; assay: Inhibition of Shh expression in CAPAN-1 cells, Q-RT-PCR; format: cell-based, human; conditions: 72 h
# Excerpt: as §2, §3, §4
# [5] = Metabolic stability in mouse liver microsomes; format: in vitro ADME
# [6] = system: Hh target genes, Gli1 and Ptch1; assay: Induction of Hh target genes by oxysterol alone in NIH3T3-E1 cells, Q-RT-PCR; format: cell-based, mouse; conditions: up to 10 µM, no CM
# Procedure: Total RNA was extracted with the RNeasy Plus Mini Kit from Qiagen, according to the manufacturer’s instructions. One microgram of RNA was reverse-transcribed using an iScript Reverse Transcription Supermix from Bio-Rad, to make single-stranded cDNA. The cDNAs were then mixed with Qi SYBR Green Supermix (Bio-Rad, Hercules, CA, USA) for quantitative RT-PCR assay using a Bio-Rad I-cycler IQ quantitative thermocycler. All PCR samples were prepared in triplicate wells in a 96-well plate. After 40 cycles of PCR, melt curves were examined in order to ensure primer specificity. Fold changes in gene expression were calculated using the ΔΔCt method. Primers used for mouse were as follows: Oaz1 (5’-CCACTGCTTCGCCAGAGAG-3’) and (5’-CCCGGACCCAGGTTACTA-3’), Gli1 (5’-[…]-3’ and 5’-[…]-3’), Ptch1 (5’-CCATCGGCGACAAGAACC-3’ and 5’-[…]-3’), Hip (5’-[…]-3’ and 5’-[…]-3’), and Abca1 (5’-[…]-3’ and 5’-[…]-3’). […]
# as §1
compound,measurement,setting,value
"C[C@]12CC[C@H](O)C[C@@H]1CC[C@@H]1[C@@H]2CC[C@@]2(C)[C@H]1CC[C@@H]2[C@](C)(O)CCc1ccc(F)cc1 [Oxy186, (3S,5S,8R,9S,10S,13S,14S,17S)-17-((R)-4-(4-fluorophenyl)-2-hydroxybutan-2-yl)-10,13-dimethylhexadecahydro-1H-cyclopenta[a]phenanthren-3-ol]",Inhibition of ligand-induced Ptch1 mRNA expression,[1],robustly inhibited
same,Inhibition of CM-induced 8XGliBS-luciferase reporter activity,[2],significantly inhibited
same,Inhibition of expression of Gli1,[3],significantly inhibited
same,Inhibition of Shh expression,[4],robustly inhibited; also recorded: significant inhibition
same,remaining at 1 h,"[5]; 60 min, read-out: MLM, % Remaining after 60 min",50%
same,half-life,"[5]; read-out: MLM, Half-Life",1 h
same,Induction of Hh target genes Gli1 and Ptch1,[6],not
